Values after ≈ are worked out from the molar mass of the structure shown.
Tests used:
Format in all cases: functional
Escherichia coli [1] = test: Antimicrobial activity against Escherichia coli MTCC 443 assessed as diameter of growth inhibition zone at 250 ug/ml after 18-24 hr by agar cup diffusion method; details: read-out: DIZ
Trichophyton rubrum [2] = test: Antimicrobial activity against Trichophyton rubrum MTCC 296 assessed as diameter of growth inhibition zone at 100 ug/ml after 48-96 hr by agar cup diffusion method; details: read-out: DIZ
Escherichia coli [3] = test: Antimicrobial activity against Escherichia coli MTCC 443 assessed as diameter of growth inhibition zone at 100 ug/ml after 18-24 hr by agar cup diffusion method; details: read-out: DIZ
Aspergillus clavatus [4] = test: Antimicrobial activity against Aspergillus clavatus MTCC 1323 by agar cup diffusion method
Penicillium [5] = test: Antimicrobial activity against Penicillium wild strain assessed as diameter of growth inhibition zone at 25 ug/ml after 48-96 hr by agar cup diffusion method; details: read-out: DIZ
Streptococcus pyogenes [6] = test: Antimicrobial activity against Streptococcus pyogenes MTCC 442 assessed as diameter of growth inhibition zone at 100 ug/ml after 18-24 hr by agar cup diffusion method; details: read-out: DIZ
Pseudomonas aeruginosa [7] = test: Antimicrobial activity against Pseudomonas aeruginosa MTCC 1688 assessed as diameter of growth inhibition zone at 100 ug/ml after 18-24 hr by agar cup diffusion method; details: read-out: DIZ
Pseudomonas aeruginosa [8] = test: Antimicrobial activity against Pseudomonas aeruginosa MTCC 1688 by agar cup diffusion method
Candida albicans [9] = test: Antimicrobial activity against Candida albicans MTCC 227 assessed as diameter of growth inhibition zone at 250 ug/ml after 48-96 hr by agar cup diffusion method; details: read-out: DIZ
Aspergillus clavatus [10] = test: Antimicrobial activity against Aspergillus clavatus MTCC 1323 assessed as diameter of growth inhibition zone at 25 ug/ml after 48-96 hr by agar cup diffusion method; details: read-out: DIZ
Aspergillus clavatus [11] = test: Antimicrobial activity against Aspergillus clavatus MTCC 1323 assessed as diameter of growth inhibition zone at 100 ug/ml after 48-96 hr by agar cup diffusion method; details: read-out: DIZ
Pseudomonas aeruginosa [12] = test: Antimicrobial activity against Pseudomonas aeruginosa MTCC 1688 assessed as diameter of growth inhibition zone at 250 ug/ml after 18-24 hr by agar cup diffusion method; details: read-out: DIZ
Klebsiella pneumoniae [13] = test: Antimicrobial activity against Klebsiella pneumoniae MTCC 109 assessed as diameter of growth inhibition zone at 100 ug/ml after 18-24 hr by agar cup diffusion method; details: read-out: DIZ
Candida albicans [14] = test: Antimicrobial activity against Candida albicans MTCC 227 assessed as diameter of growth inhibition zone at 25 ug/ml after 48-96 hr by agar cup diffusion method; details: read-out: DIZ
Penicillium [15] = test: Antimicrobial activity against Penicillium wild strain by agar cup diffusion method
Pseudomonas aeruginosa [16] = test: Antimicrobial activity against Pseudomonas aeruginosa MTCC 1688 assessed as diameter of growth inhibition zone at 50 ug/ml after 18-24 hr by agar cup diffusion method; details: read-out: DIZ
Trichophyton rubrum [17] = test: Antimicrobial activity against Trichophyton rubrum MTCC 296 assessed as diameter of growth inhibition zone at 25 ug/ml after 48-96 hr by agar cup diffusion method; details: read-out: DIZ
Klebsiella pneumoniae [18] = test: Antimicrobial activity against Klebsiella pneumoniae MTCC 109 assessed as diameter of growth inhibition zone at 50 ug/ml after 18-24 hr by agar cup diffusion method; details: read-out: DIZ
Klebsiella pneumoniae [19] = test: Antimicrobial activity against Klebsiella pneumoniae MTCC 109 assessed as diameter of growth inhibition zone at 25 ug/ml after 18-24 hr by agar cup diffusion method; details: read-out: DIZ
Staphylococcus aureus [20] = test: Antimicrobial activity against Staphylococcus aureus MTCC 96 assessed as diameter of growth inhibition zone at 25 ug/ml after 18-24 hr by agar cup diffusion method; details: read-out: DIZ
Trichophyton rubrum [21] = test: Antimicrobial activity against Trichophyton rubrum MTCC 296 by agar cup diffusion method
Penicillium [22] = test: Antimicrobial activity against Penicillium wild strain assessed as diameter of growth inhibition zone at 100 ug/ml after 48-96 hr by agar cup diffusion method; details: read-out: DIZ
Escherichia coli [23] = test: Antimicrobial activity against Escherichia coli MTCC 443 assessed as diameter of growth inhibition zone at 25 ug/ml after 18-24 hr by agar cup diffusion method; details: read-out: DIZ
Penicillium [24] = test: Antimicrobial activity against Penicillium wild strain assessed as diameter of growth inhibition zone at 50 ug/ml after 48-96 hr by agar cup diffusion method; details: read-out: DIZ
Staphylococcus aureus [25] = test: Antimicrobial activity against Staphylococcus aureus MTCC 96 assessed as diameter of growth inhibition zone at 100 ug/ml after 18-24 hr by agar cup diffusion method; details: read-out: DIZ
Streptococcus pyogenes [26] = test: Antimicrobial activity against Streptococcus pyogenes MTCC 442 by agar cup diffusion method
Staphylococcus aureus [27] = test: Antimicrobial activity against Staphylococcus aureus MTCC 96 by agar cup diffusion method
Streptococcus pyogenes [28] = test: Antimicrobial activity against Streptococcus pyogenes MTCC 442 assessed as diameter of growth inhibition zone at 50 ug/ml after 18-24 hr by agar cup diffusion method; details: read-out: DIZ
Staphylococcus aureus [29] = test: Antimicrobial activity against Staphylococcus aureus MTCC 96 assessed as diameter of growth inhibition zone at 50 ug/ml after 18-24 hr by agar cup diffusion method; details: read-out: DIZ
Streptococcus pyogenes [30] = test: Antimicrobial activity against Streptococcus pyogenes MTCC 442 assessed as diameter of growth inhibition zone at 250 ug/ml after 18-24 hr by agar cup diffusion method; details: read-out: DIZ
Penicillium [31] = test: Antimicrobial activity against Penicillium wild strain assessed as diameter of growth inhibition zone at 250 ug/ml after 48-96 hr by agar cup diffusion method; details: read-out: DIZ
Candida albicans [32] = test: Antimicrobial activity against Candida albicans MTCC 227 assessed as diameter of growth inhibition zone at 50 ug/ml after 48-96 hr by agar cup diffusion method; details: read-out: DIZ
Staphylococcus aureus [33] = test: Antimicrobial activity against Staphylococcus aureus MTCC 96 assessed as diameter of growth inhibition zone at 250 ug/ml after 18-24 hr by agar cup diffusion method; details: read-out: DIZ
Streptococcus pyogenes [34] = test: Antimicrobial activity against Streptococcus pyogenes MTCC 442 assessed as diameter of growth inhibition zone at 25 ug/ml after 18-24 hr by agar cup diffusion method; details: read-out: DIZ
Pseudomonas aeruginosa [35] = test: Antimicrobial activity against Pseudomonas aeruginosa MTCC 1688 assessed as diameter of growth inhibition zone at 25 ug/ml after 18-24 hr by agar cup diffusion method; details: read-out: DIZ
Escherichia coli [36] = test: Antimicrobial activity against Escherichia coli MTCC 443 assessed as diameter of growth inhibition zone at 50 ug/ml after 18-24 hr by agar cup diffusion method; details: read-out: DIZ
Candida albicans [37] = test: Antimicrobial activity against Candida albicans MTCC 227 by agar cup diffusion method
Candida albicans [38] = test: Antimicrobial activity against Candida albicans MTCC 227 assessed as diameter of growth inhibition zone at 100 ug/ml after 48-96 hr by agar cup diffusion method; details: read-out: DIZ
Escherichia coli [39] = test: Antimicrobial activity against Escherichia coli MTCC 443 by agar cup diffusion method
Trichophyton rubrum [40] = test: Antimicrobial activity against Trichophyton rubrum MTCC 296 assessed as diameter of growth inhibition zone at 250 ug/ml after 48-96 hr by agar cup diffusion method; details: read-out: DIZ
Aspergillus clavatus [41] = test: Antimicrobial activity against Aspergillus clavatus MTCC 1323 assessed as diameter of growth inhibition zone at 250 ug/ml after 48-96 hr by agar cup diffusion method; details: read-out: DIZ
Klebsiella pneumoniae [42] = test: Antimicrobial activity against Klebsiella pneumoniae MTCC 109 by agar cup diffusion method
Klebsiella pneumoniae [43] = test: Antimicrobial activity against Klebsiella pneumoniae MTCC 109 assessed as diameter of growth inhibition zone at 250 ug/ml after 18-24 hr by agar cup diffusion method; details: read-out: DIZ
Trichophyton rubrum [44] = test: Antimicrobial activity against Trichophyton rubrum MTCC 296 assessed as diameter of growth inhibition zone at 50 ug/ml after 48-96 hr by agar cup diffusion method; details: read-out: DIZ
Aspergillus clavatus [45] = test: Antimicrobial activity against Aspergillus clavatus MTCC 1323 assessed as diameter of growth inhibition zone at 50 ug/ml after 48-96 hr by agar cup diffusion method; details: read-out: DIZ

Question: What does the source list for `COc1ccc(/C=C/C(=O)C2C(=O)NC(=S)NC2=O)cc1`?
Answer: zone of inhibition at 250 µg/mL (Escherichia coli [1]): 21 mm; zone of inhibition at 100 µg/mL (Trichophyton rubrum [2]): 21 mm; zone of inhibition at 100 µg/mL (Escherichia coli [3]): 20 mm; MFC (Aspergillus clavatus [4]): 1000 µg/mL (≈ 3290 µM); MIC (Aspergillus clavatus [4]): 500 µg/mL (≈ 1640 µM); zone of inhibition at 25 µg/mL (Penicillium [5]): 21 mm; zone of inhibition at 100 µg/mL (Streptococcus pyogenes [6]): 20 mm; zone of inhibition at 100 µg/mL (Pseudomonas aeruginosa [7]): 18 mm; MBC (Pseudomonas aeruginosa [8]): 125 µg/mL (≈ 411 µM); MIC (Pseudomonas aeruginosa [8]): 100 µg/mL (≈ 329 µM); zone of inhibition at 250 µg/mL (Candida albicans [9]): 24 mm; zone of inhibition at 25 µg/mL (Aspergillus clavatus [10]): 20 mm; zone of inhibition at 100 µg/mL (Aspergillus clavatus [11]): 23 mm; zone of inhibition at 250 µg/mL (Pseudomonas aeruginosa [12]): 21 mm; zone of inhibition at 100 µg/mL (Klebsiella pneumoniae [13]): 14 mm; zone of inhibition at 25 µg/mL (Candida albicans [14]): 18 mm; MFC (Penicillium [15]): 500 µg/mL (≈ 1640 µM); MIC (Penicillium [15]): 500 µg/mL (≈ 1640 µM); zone of inhibition at 50 µg/mL (Pseudomonas aeruginosa [16]): 17 mm; zone of inhibition at 25 µg/mL (Trichophyton rubrum [17]): 19 mm; zone of inhibition at 50 µg/mL (Klebsiella pneumoniae [18]): 13 mm; zone of inhibition at 25 µg/mL (Klebsiella pneumoniae [19]): 11 mm; zone of inhibition at 25 µg/mL (Staphylococcus aureus [20]): 13 mm; MFC (Trichophyton rubrum [21]): > 1000 µg/mL; MIC (Trichophyton rubrum [21]): > 1000 µg/mL; zone of inhibition at 100 µg/mL (Penicillium [22]): 23 mm; zone of inhibition at 25 µg/mL (Escherichia coli [23]): 15 mm; zone of inhibition at 50 µg/mL (Penicillium [24]): 21 mm; zone of inhibition at 100 µg/mL (Staphylococcus aureus [25]): 18 mm; MBC (Streptococcus pyogenes [26]): 250 µg/mL (≈ 821 µM); MIC (Streptococcus pyogenes [26]): 200 µg/mL (≈ 657 µM); MBC (Staphylococcus aureus [27]): 250 µg/mL (≈ 821 µM); MIC (Staphylococcus aureus [27]): 200 µg/mL (≈ 657 µM); zone of inhibition at 50 µg/mL (Streptococcus pyogenes [28]): 18 mm; zone of inhibition at 50 µg/mL (Staphylococcus aureus [29]): 17 mm; zone of inhibition at 250 µg/mL (Streptococcus pyogenes [30]): 21 mm; zone of inhibition at 250 µg/mL (Penicillium [31]): 25 mm; zone of inhibition at 50 µg/mL (Candida albicans [32]): 21 mm; zone of inhibition at 250 µg/mL (Staphylococcus aureus [33]): 21 mm; zone of inhibition at 25 µg/mL (Streptococcus pyogenes [34]): 15 mm; zone of inhibition at 25 µg/mL (Pseudomonas aeruginosa [35]): 13 mm; zone of inhibition at 50 µg/mL (Escherichia coli [36]): 18 mm; MFC (Candida albicans [37]): 1000 µg/mL (≈ 3290 µM); MIC (Candida albicans [37]): > 1000 µg/mL; zone of inhibition at 100 µg/mL (Candida albicans [38]): 24 mm; MBC (Escherichia coli [39]): 250 µg/mL (≈ 821 µM); MIC (Escherichia coli [39]): 200 µg/mL (≈ 657 µM); zone of inhibition at 250 µg/mL (Trichophyton rubrum [40]): 22 mm; zone of inhibition at 250 µg/mL (Aspergillus clavatus [41]): 24 mm; MBC (Klebsiella pneumoniae [42]): 250 µg/mL (≈ 821 µM); MIC (Klebsiella pneumoniae [42]): 200 µg/mL (≈ 657 µM); zone of inhibition at 250 µg/mL (Klebsiella pneumoniae [43]): 17 mm; zone of inhibition at 50 µg/mL (Trichophyton rubrum [44]): 20 mm; zone of inhibition at 50 µg/mL (Aspergillus clavatus [45]): 21 mm

Reference: ChEMBL document CHEMBL3044736, “Synthesis, characterization, solvatochromic properties, and antimicrobial evaluation of 5-acetyl-2-thioxo-dihydro-pyrimidine-4,6-dione-based chalcones” (2013)
